Experimental findings from ChEMBL document CHEMBL1121972, “Spasmolytic agents. 2. 1,2,3,4-Tetrahydro-2-naphthylamine derivatives” (1982) are described below.

Test [1] deals with Canis familiaris. As to the kind of experiment: Antispasmodic activity was measured on colonic contraction in anesthetized dog after iv administration of a dose of 0.1 mg/kg. It is filed as functional, Canis lupus familiaris.
For test [2], the system named is Canis familiaris. Briefly: Antispasmodic activity was measured on stomach contraction in anesthetized dog after iv administration of a dose of 0.1 mg/kg. It counts as functional, Canis lupus familiaris.

For the compound `CCCOc1ccc2c(c1)CCC(N(CC)CCCCOC(=O)c1ccc(OC)c(OC)c1)C2.Cl` (stereo not given), the Activity in test [1] is 1.4; in test [2], less than 5.

Take `CCN(CCCOC(=O)c1ccc(OC)c(OC)c1)C1CCc2cc(OC)ccc2C1.Cl` (stereo not given): the Activity in test [1] is on record as -1; in test [2] it was less than 5.

Take `CCN(CCCCOC(=O)c1c(OC)cccc1OC)C1CCc2cc(OC)ccc2C1.Cl` (stereo not given): the Activity in test [1] is listed as -8.7; in test [2], less than 5.

In the case of `CCN(CCCCO)C1CCc2cc(OC)ccc2C1` (stereo not given), the values for the Activity in test [1] and in test [2] were 2.6 and less than 5, respectively.

Regarding `CCN(CCCCOC(=O)c1ccccc1)C1CCc2cc(OC)ccc2C1.Cl` (stereo not given), the values for the Activity in test [1] and in test [2] were -2.6 and less than 5, respectively.

`CCN(CCOCCOC(=O)c1ccc(OC)c(OC)c1)C1CCc2cc(OC)ccc2C1.Cl` (stereo not given): the Activity in test [1] is 0; in test [2] it was less than 5.

Regarding `COc1ccc2c(c1)CCC(N(C)CCCCOC(=O)c1ccc(OC)c(OC)c1)C2.Cl` (stereo not given), the Activity is listed as -4.9 in test [1] and less than 5 in test [2].

Turning to `CCN(CCCCOC(=O)c1ccc(OC)c(OC)c1)C1CCc2c(OC)ccc(OC)c2C1.Cl` (stereo not given), the Activity in test [1] was 9.2; in test [2] it was less than 5.

With `COc1ccc2c(c1)CCC(N(CCCCOC(=O)c1ccc(OC)c(OC)c1)C(C)C)C2.Cl` (stereo not given), the Activity is given as 19.6 in test [1] and less than 5 in test [2].

As for `CCN(CCCCOC(=O)c1cc(OC)c(OC)c(OC)c1)C1CCc2cc(OC)ccc2C1.CS(=O)(=O)O` (stereo not given), the Activity in test [1] is recorded as 1.1; in test [2] it was less than 5.

In test [2], `CCN(CCCCCCOC(=O)c1ccc(OC)c(OC)c1)C1CCc2ccccc2C1.Cl` (stereo not given) showed an Activity of 31.3.

`CCN(CCCCOCc1ccc(OC)c(OC)c1)C1CCc2cc(OC)ccc2C1` (stereo not given): the values for the Activity in test [1] and in test [2] were -4.3 and less than 5, respectively.

Regarding `CCN(CCCCOC(=O)c1ccc(OC)c(OC)c1)C1CCc2cc3c(cc2C1)OCO3.Cl` (stereo not given), the Activity in test [1] is listed as 13.4; in test [2] it was less than 5.

On to `CCCOc1ccc(C(=O)OCCCCN(CC)C2CCc3cc(OC)ccc3C2)cc1.Cl` (stereo not given), for which the Activity in test [1] is 10.2; in test [2], less than 5.

Take `CCN(CCOC(=O)c1ccc(OC)c(OC)c1)C1CCc2cc(OC)ccc2C1.Cl` (stereo not given): the Activity in test [1] is given as 11.4; in test [2] it was less than 5.

As to `CCN(CCCCOC(=O)c1ccc(OC)c(OC)c1)C1CCc2cc(OC)ccc2C1.Cl` (stereo not given), the Activity in test [2] is 6.6.

Turning to `CCN(CCCCCCO)C1CCc2cc(OC)ccc2C1` (stereo not given), the Activity in test [1] is on record as 5.2.

In the case of `CCN(CC(C)(C)COC(=O)c1ccc(OC)c(OC)c1)C1CCc2cc(OC)ccc2C1.Cl` (stereo not given), the results for the Activity in test [1] and in test [2] were 15.8 and less than 5, respectively.

In test [2], `CCN(CCCCOC(=O)c1ccc(OC)c(OC)c1)C1CCc2ccc(OC)cc2C1.Cl` (stereo not given) came in with an Activity of 18.1.

On to `CCN(CCCCOC(=O)c1ccc2c(c1)OCO2)C1CCc2cc(OC)ccc2C1.Cl` (stereo not given), for which the figures for the Activity in test [1] and in test [2] were 1.3 and less than 5, respectively.

On to `CCN(CCCCOC(=O)c1ccc(OC)c(OC)c1)C1CCc2ccccc2C1.Cl` (stereo not given), for which the Activity in test [2] is reported as less than 5.

Turning to `CCOc1ccc2c(c1)CCC(N(CC)CCCCOC(=O)c1ccc(OC)c(OC)c1)C2.Cl` (stereo not given), the Activity was 7.4 in test [1] and less than 5 in test [2].

In test [2], `CCN(CCCCOC(=O)c1ccc(OC)c(OC)c1)C1CCc2cc(OC)c(OC)cc2C1.Cl` (stereo not given) returned an Activity of 11.8.

Turning to `CCOc1cc(C(=O)OCCCCN(CC)C2CCc3cc(OC)ccc3C2)cc(OCC)c1OCC.Cl` (stereo not given), the Activity in test [1] is given as -6.8; in test [2] it was less than 5.

On to `CCN(CCCCOC(=O)c1ccc(OC)c(OC)c1)C1CCc2c(cccc2OC)C1.Cl` (stereo not given), for which the Activity in test [1] is recorded as 13.3; in test [2], less than 5.

Consider `CCN(CCCCCCOC(=O)c1ccc(OC)c(OC)c1)C1CCc2cc(OC)c(OC)cc2C1.Cl` (stereo not given), for which the Activity in test [2] is listed as 64.5.

Consider `CCN(CCCCOC(=O)c1ccc(OC)c(OC)c1)C1CCc2cccc(OC)c2C1.Cl` (stereo not given), for which the Activity in test [2] is 21.3.

Consider `CCCN(CCCCOC(=O)c1ccc(OC)c(OC)c1)C1CCc2cc(OC)ccc2C1.Cl` (stereo not given), for which the Activity in test [2] is reported as less than 5.

In the case of `CCOc1ccc(C(=O)OCCCCN(CC)C2CCc3cc(OC)ccc3C2)cc1.Cl` (stereo not given), the values for the Activity in test [1] and in test [2] were -2.5 and less than 5, respectively.

`CCN(CCCCCCOC(=O)c1ccc(OC)c(OC)c1)C1CCc2cc(OC)ccc2C1.Cl` (stereo not given) returned an Activity in test [2] of less than 5.

For the compound `CCN(CCCCOC(=O)c1ccc(OC)c(OC)c1)C(C)Cc1ccc(OC)cc1` (stereo not given) [MEBEVERINE], in test [2], the Activity was 2.6.

`CCN(CCCCOC(=O)c1ccc(OC)cc1)C1CCc2cc(OC)ccc2C1.Cl` (stereo not given): the Activity in test [1] was 8.1; in test [2], less than 5.

As to `CCN(CCCCCCCCCCOC(=O)c1ccc(OC)c(OC)c1)C1CCc2cc(OC)ccc2C1.Cl` (stereo not given), the Activity in test [1] is 13.7; in test [2], less than 5.
